Legend:
[1] = molecular target: T1, recombinant MEN1 protein and fluorescein-labeled MLL4-43 peptide (Homo sapiens, UniProt O00255); experiment: Primary fluorescence polarization assay of MEN1 / MLL4-43 interaction inhibition; assay type: binding; details: MEN1 10 nM, MLL4-43 0.5 nM, 1 hour at room temperature
T1 construct: purchased Creativebiomart MEN1-35H
T1 sequence (O00255 1-610): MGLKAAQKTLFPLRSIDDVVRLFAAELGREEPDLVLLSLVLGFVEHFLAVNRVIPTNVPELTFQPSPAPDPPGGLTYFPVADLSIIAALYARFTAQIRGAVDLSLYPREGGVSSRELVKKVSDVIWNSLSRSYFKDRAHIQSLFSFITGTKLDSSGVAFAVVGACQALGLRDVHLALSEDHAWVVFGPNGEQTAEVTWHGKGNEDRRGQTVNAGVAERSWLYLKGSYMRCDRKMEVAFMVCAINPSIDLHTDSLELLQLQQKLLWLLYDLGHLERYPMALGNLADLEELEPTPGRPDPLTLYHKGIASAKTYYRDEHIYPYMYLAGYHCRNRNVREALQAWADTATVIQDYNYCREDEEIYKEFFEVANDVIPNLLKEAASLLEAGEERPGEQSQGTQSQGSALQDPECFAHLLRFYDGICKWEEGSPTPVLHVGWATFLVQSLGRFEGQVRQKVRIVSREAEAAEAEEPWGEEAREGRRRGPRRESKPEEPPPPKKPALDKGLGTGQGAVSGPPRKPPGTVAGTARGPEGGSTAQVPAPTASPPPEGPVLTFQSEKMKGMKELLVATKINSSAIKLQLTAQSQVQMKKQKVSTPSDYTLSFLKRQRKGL
Description: Compound activity was determined using recombinant MEN1 protein (Creativebiomart, Cat #MEN1-35H) and a custom fluorescein-labeled MLL4-43 peptide (Eton Bioscience Inc.). Interaction between MEN1 and MLL4-43 in the presence of compounds was determined by fluorescence polarization assay using a Microplate Reader ClarioStar Plus. The reaction was carried out in assay buffer (50 mM TRIS-HCl PH 7.4-7.6, 50 mM NaCl, 1 mM DTT, 0.1 mg/ml BSA). The compounds were dispensed on a 384 well Diamond Well Plate (Axigen, Cat #P-384-120 SQ-C—S) using the Biomek FX liquid handling system at 100× solutions of compounds in DMSO. 2× MEN1 mix (final concentration of MEN1 10 nM) was prepared in Assay buffer and 10 μl of mixture per well was added into 384w white Reaction plate with NBS(Corning, Cat #4513). 10 μl of Assay buffer w/o MENI was used for negative control. Plates were centrifuged for 1 min at 100 g. Next step the Compounds were added to Reaction plate using Biomek station via following steps: 3 μl of 100× compounds (in DMSO) were mixed thoroughly with 27 μl Assay Buffer, then 2 μl of this mixture was added to Reaction plate with 10 μl of MENI mix. Plates were centrifuged for 1 min at 100 g and incubated for 20 min at room temperature. Next 8 μL of MLL4-43 peptide per well was added to final concentration of MLL 0.5 nM. Plates were incubated for 1 hour at room temperature. Then fluorescence polarization was measured using Microplate Reader.

MV4-11 = MV4-11 Cellular Growth Inhibition Assay (CellTiter-Glo); assay type: cell-based; details: Homo sapiens, 168 h, MV4-11 cells, 7 days of incubation
Description: (§1) HEK293 (Institute of Cytology Russian Academy of Science), MV4-11 (ATCC, CRL-9591), MOLM-13 (AcceGen, ABC-TC517S) were seeded at a density of 500 cells per well (HEK293) and 2000 cells per well (MV4-11, MOLM-13) in a 384-well clear bottom plate (Greiner Cat #781090) in 45 μl total volume of DMEM (PanEco, Cat #C420, Russia) or RPMI (PanEco, Cat #C330, Russia) with 10% FBS(HyClone Cat #SV30160.03). HEK293 were allowed to adhere overnight at 37° C., 5% CO2. 500× compounds solutions in DMSO (Sigma Cat #D2650) were prepared into Cmpnds plate (Diamond Well Plate, Axigen, Cat #P-384-120 SQ-C—S) and DMSO only control was included. 1 μl of 500× compounds (Cmpnds plate) was added to 49 μl of culture medium into Dilution plate (Diamond Well Plate, Axigen, Cat #P-384-120 SQ-C—S), mixed and then 5 μl of 10× compounds solutions were transferred to cells followed by centrifugation at 100 g for 1 min. Final DMSO concentration was 0.2%. After 3 days of incubation, 10 μl of 1× compounds were added to cells. After 7 days of incubation, 12 μl of CellTiter-Glo (Promega, CAT #G7572) were added to the cells, plate was centrifuged at 100 g for 1 min and luminescence signal was measured using Microplate Reader (CLARIOStar).

MOLM-13 = MOLM-13 Cellular Growth Inhibition Assay (CellTiter-Glo); assay type: cell-based; details: Homo sapiens, 168 h, MOLM-13 cells, 7 days of incubation
Description: as §1

[2] = HEK293 Cellular Growth Inhibition Assay (CellTiter-Glo); assay type: cell-based; details: human, HEK293 cells, 7 days of incubation
Description: as §1

SMILES	EC50 [1] [µM]	CC50 (MV4-11) [µM]	CC50 (MOLM-13) [µM]	CC50 at 7 days [2] [µM]
c1ccc(CCc2ccc3ncnc(N4CC5(CCNCC5)C4)c3c2)cc1 [Compound P148, 4-(2,7-Diazaspiro[3.5]non-2-yl)-6-(2-phenylethyl)quinazoline]	> 5			
CCS(=O)(=O)N[C@H]1CC[C@H](CNc2ccc(CN3CCC4(CC3)CN(c3ncnc5ccc(CC(F)(F)F)cc35)C4)cc2)CC1 [Compound 79, N-((1R,4R)-4-(((4-((2-(6-(2,2,2-trifluoroethyl)quinazolin-4-yl)-2,7-diazaspiro[3.5]nonan-7-yl)methyl)phenyl)amino)methyl)cyclohexyl)ethanesulfonamide]	0.075 to 0.5	> 10	1 to 5	≤ 5
CCS(=O)(=O)Nc1cccc(CN2CC3(CCN(c4ncnc5ccc(CC(F)(F)F)cc45)CC3)C2)c1 [Compound 44, N-(3-((7-(6-(2,2,2-trifluoroethyl)quinazolin-4-yl)-2,7-diazaspiro[3.5]nonan-2-yl)methyl)phenyl)ethanesulfonamide]	0.5 to 1	1 to 2.5	5 to 10	5 to 15
CCS(=O)(=O)N[C@H]1CC[C@H](CN2CCC3(CC2)CN(c2ncnc4ccc(CCc5ccncc5)cc24)C3)CC1 [Compound 48, N-((1R,4R)-4-((2-(6-(2-(pyridin-4-yl)ethyl)quinazolin-4-yl)-2,7-diazaspiro[3.5]nonan-7-yl)methyl)cyclohexyl)ethanesulfonamide]	0.5 to 1	> 10	> 20	30 to 50
CCS(=O)(=O)Nc1ccc(CN2CCC(Nc3ncnc4cc(CC(F)(F)F)ccc34)CC2)cc1 [Compound 33, N-(4-((4-((7-(2,2,2-trifluoroethyl)quinazolin-4-yl)amino)piperidin-1-yl)methyl)phenyl)ethanesulfonamide]	> 5			
CCS(=O)(=O)Nc1ccc(CN2CCC3(CC2)CN(c2ncnc4ncccc24)C3)cc1 [Compound 24, N-[4-[(2-pyrido[2,3-d]pyrimidin-4-yl-2,7-diazaspiro[3.5]nonan-7-yl)methyl]phenyl]ethanesulfonamide]	> 5			
CCS(=O)(=O)Nc1ccc(CN2CCC3(CC2)CN(c2ncnc4ccc(CC(F)(F)F)cc24)C3)cc1C(=O)NCCN1CCOCC1 [Compound 92, 2-(ethylsulfonamido)-N-(2-morpholinoethyl)-5-((2-(6-(2,2,2-trifluoroethyl)quinazolin-4-yl)-2,7-diazaspiro[3.5]nonan-7-yl)methyl)benzamide]	> 5			
CCS(=O)(=O)N[C@H]1CC[C@H](CN2CCC3(CC2)CN(c2ncnc4ccc(CCc5nc(C)no5)cc24)C3)CC1 [Compound 63, N-((1R,4R)-4-((2-(6-(2-(3-methyl-1,2,4-oxadiazol-5-yl)ethyl)quinazolin-4-yl)-2,7-diazaspiro[3.5]nonan-7-yl)methyl)cyclohexyl)ethanesulfonamide]	1 to 5			
CCS(=O)(=O)Nc1ccc(CN2CCC3(CC2)CN(c2nc(NC)nc4ncccc24)C3)cc1 [Compound 31]	> 5			
CCN(C[C@H]1CC[C@H](NS(=O)(=O)CC)CC1)c1ccc(CN2CCC3(CC2)CN(c2ncnc4ccc(CC(F)(F)F)cc24)C3)cc1 [Compound 100, N-((1R,4R)-4-((ethyl(4-((2-(6-(2,2,2-trifluoroethyl)quinazolin-4-yl)-2,7-diazaspiro[3.5]nonan-7-yl)methyl)phenyl)amino)methyl)cyclohexyl)ethanesulfonamide]	1 to 5			
CCS(=O)(=O)N[C@H]1CC[C@H](CN2CCC3(CC2)CCN(c2ncnc4cc(CC(F)(F)F)ccc24)CC3)CC1 [Compound 4, N-((1R,4R)-4-((9-(7-(2,2,2-trifluoroethyl)quinazolin-4-yl)-3,9-diazaspiro[5.5]undecan-3-yl)methyl)cyclohexyl)ethanesulfonamide]	1 to 5			
CCS(=O)(=O)Nc1cccc(CN2CCC3(CC2)CN(c2ncnc4ccccc24)C3)c1 [Compound 23, N-(3-((2-(quinazolin-4-yl)-2,7-diazaspiro[3.5]nonan-7-yl)methyl)phenyl)ethanesulfonamide]	> 5			
N#Cc1cc(CN2CCC3(CC2)CN(c2ncnc4ccc(CC(F)(F)F)cc24)C3)ccc1F [Compound 102, 2-fluoro-5-((2-(6-(2,2,2-trifluoroethyl)quinazolin-4-yl)-2,7-diazaspiro[3.5]nonan-7-yl)methyl)benzonitrile]	1 to 5			

The next lines start with results.

EC50 [1] [µM]	SMILES	CC50 (MV4-11) [µM]	CC50 (MOLM-13) [µM]	CC50 at 7 days [2] [µM]
≤ 0.075	CCS(=O)(=O)N[C@H]1CC[C@H](CN2CCC3(CC2)CN(c2ncnc4ccc(CC(F)(F)F)cc24)C3)CC1 [Compound 5, N-((1R,4R)-4-((2-(6-(2,2,2-trifluoroethyl)quinazolin-4-yl)-2,7-diazaspiro[3.5]nonan-7-yl)methyl)cyclohexyl)ethanesulfonamide]	≤ 1	1 to 5	5 to 15
1 to 5	CCS(=O)(=O)Nc1ccc(CN2CCC3(CC2)CCN(c2ncnc4ccc(CC(F)(F)F)cc24)CC3)cc1 [Compound 1, N-[4-[[3-[6-(2,2,2-trifluoroethyl)quinazolin-4-y1]-3,9-diazaspiro[5.5]undecan-9-yl]methyl]phenyl]ethanesulfonamide]	2.5 to 5	5 to 10	5 to 15
1 to 5	CCS(=O)(=O)N1CCc2ccc(CN3CCC4(CC3)CN(c3ncnc5ccc(CC(F)(F)F)cc35)C4)cc2C1 [Compound 111, 4-(7-((2-(ethylsulfonyl)-1,2,3,4-tetrahydroisoquinolin-7-yl)methyl)-2,7-diazaspiro[3.5]nonan-2-y1)-6-(2,2,2-trifluoroethyl)quinazoline]			
> 5	CCS(=O)(=O)Nc1ccc(CN2CCC3(CC2)CN(c2ncnc4ccccc24)C3)cc1 [Compound 21, N-(4-((2-(quinazolin-4-yl)-2,7-diazaspiro[3.5]nonan-7-yl)methyl)phenyl)ethanesulfonamide]			
0.075 to 0.5	CCS(=O)(=O)N1CCc2cc(CN3CCC4(CC3)CN(c3ncnc5ccc(CC(F)(F)F)cc35)C4)ccc2C1 [Compound 110, 4-(7-((2-(ethylsulfonyl)-1,2,3,4-tetrahydroisoquinolin-6-yl)methyl)-2,7-diazaspiro[3.5]nonan-2-yl)-6-(2,2,2-trifluoroethyl)quinazoline]			
> 5	CCS(=O)(=O)Nc1ccc(CN2CCC3(CC2)CCN(c2ncnc4cc(CC(F)(F)F)ccc24)CC3)cc1 [Compound 2]	> 10		15 to 30
1 to 5	CCS(=O)(=O)NC1CCc2cc(CN3CCC4(CC3)CN(c3ncnc5ccc(CC(F)(F)F)cc35)C4)cc(F)c2C1 (racemic) [Compound 77, rac-(R)-N-(8-fluoro-6-((2-(6-(2,2,2-trifluoroethyl)quinazolin-4-yl)-2,7-diazaspiro[3.5]nonan-7-yl)methyl)-1,2,3,4-tetrahydronaphthalen-2-yl)ethanesulfonamide]			
